Read-outs that look alike come from different tables or passages of the source.
Legend:
[1] = molecular target: T1, Human recombinant PDE2A (hPDE2A) (Homo sapiens, UniProt O00408); assay: In vitro assay PDE2A (SPA, 3H-cGMP hydrolysis); type: biochemical; conditions: for Emax: read-out: hPDE2A Emax
T1 construct: His tag (inferred from metal chelate purification); made in house; host or cells: Sf9 insect cells (baculovirus)

PDE2A = molecular target: T2, PDE2A (Rattus norvegicus, UniProt Q01062); assay: PDE2 occupancy by test compounds, ex-vivo autoradiography with [3H]B-17a; type: in vivo, Male Wistar rats; conditions: for receptor occupancy at 10 mg/kg: route PO (oral), percentage receptor occupancy, ex-vivo autoradiography, striatum
T2 construct: Twenty μm-thick striatal sections were cut; from tissue; host or cells: rat brain, striatal sections
T2 sequence (Q01062 1-928): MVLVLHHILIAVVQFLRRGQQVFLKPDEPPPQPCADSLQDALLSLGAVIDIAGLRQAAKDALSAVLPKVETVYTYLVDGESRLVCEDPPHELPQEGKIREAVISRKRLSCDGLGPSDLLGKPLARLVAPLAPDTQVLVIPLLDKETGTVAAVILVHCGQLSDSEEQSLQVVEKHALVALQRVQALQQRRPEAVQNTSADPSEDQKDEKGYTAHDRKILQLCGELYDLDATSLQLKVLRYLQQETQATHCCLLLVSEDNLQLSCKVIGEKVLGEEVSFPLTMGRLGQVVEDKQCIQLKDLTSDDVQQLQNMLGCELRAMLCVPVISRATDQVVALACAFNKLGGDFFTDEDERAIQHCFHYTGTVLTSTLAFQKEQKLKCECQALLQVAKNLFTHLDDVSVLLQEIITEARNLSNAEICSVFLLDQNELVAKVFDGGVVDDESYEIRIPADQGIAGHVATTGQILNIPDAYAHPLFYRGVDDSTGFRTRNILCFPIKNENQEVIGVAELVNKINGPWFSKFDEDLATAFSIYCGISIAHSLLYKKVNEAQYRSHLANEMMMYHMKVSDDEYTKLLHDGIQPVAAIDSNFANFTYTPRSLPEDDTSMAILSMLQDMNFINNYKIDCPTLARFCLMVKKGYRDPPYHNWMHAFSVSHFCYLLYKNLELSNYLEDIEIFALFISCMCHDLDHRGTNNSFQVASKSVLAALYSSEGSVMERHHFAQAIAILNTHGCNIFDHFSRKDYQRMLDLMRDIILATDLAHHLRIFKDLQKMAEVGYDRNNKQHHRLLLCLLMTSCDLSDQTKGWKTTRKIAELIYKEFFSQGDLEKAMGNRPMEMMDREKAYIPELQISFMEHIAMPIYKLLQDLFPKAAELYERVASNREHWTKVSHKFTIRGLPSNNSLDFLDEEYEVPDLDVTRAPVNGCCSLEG

[2] = molecular target: T3, Human recombinant PDE3A (hPDE3A) (Homo sapiens, UniProt Q14432); assay: In vitro assay PDE3A (SPA, 3H-cAMP hydrolysis); type: biochemical; conditions: for IC50: hPDE3B pIC50; for Emax: read-out: hPDE3B Emax, read-out: Emax;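 as to Emax: the method names PDE3A and the table heading PDE3B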
T3 construct: purchased Scottish Biomedical; host or cells: Sf9 insect cells
In short: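 Radiometric SPA measuring [3H]-cAMP hydrolysis (0.4 μM cAMP, 2.4 μCi/ml) over 60 min at room temperature, in Tris pH 7.8 buffer with MgCl2 and EGTA, 1% DMSO. Enzyme: recombinant human brain PDE3A expressed in Sf9 cells, used as partially purified lysate. Counts compared with enzyme-free blanks and vehicle controls.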

[3] = molecular target: T4, Human recombinant PDE10A (hPDE10A) (Homo sapiens, UniProt Q9Y233); assay: In vitro assay PDE10A, human clone (SPA, 3H-cAMP hydrolysis); type: biochemical; conditions: for Emax: read-out: hPDE10A2 or rPDE10A2 Emax
T4 construct: His tag (inferred from metal chelate purification); made in house; host or cells: Sf9 insect cells (baculovirus)
In short: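 Hydrolysis of 3H-cAMP (60 nM cAMP, 0.008 μCi tracer) proceeded for 60 min at room temperature, with the product detected by SPA bead scintillation counting. The enzyme was hPDE10A from baculovirus-infected Sf9 cells in Tris pH 7.8 buffer with MgCl2 and EGTA, and compounds were at 1% DMSO final. Blanks lacked enzyme.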

[4] = read-out: hPDE2A pIC50 (converted)
[5] = human clone by default (no (r) mark)
[6] = human clone by default (no (r) mark), read-out: hPDE10A2 or rPDE10A2 pIC50 (converted)
[7] = hPDE10A2 or rPDE10A2 pIC50, human clone by default (no (r) mark)

T1 sequence (O00408 whole entry): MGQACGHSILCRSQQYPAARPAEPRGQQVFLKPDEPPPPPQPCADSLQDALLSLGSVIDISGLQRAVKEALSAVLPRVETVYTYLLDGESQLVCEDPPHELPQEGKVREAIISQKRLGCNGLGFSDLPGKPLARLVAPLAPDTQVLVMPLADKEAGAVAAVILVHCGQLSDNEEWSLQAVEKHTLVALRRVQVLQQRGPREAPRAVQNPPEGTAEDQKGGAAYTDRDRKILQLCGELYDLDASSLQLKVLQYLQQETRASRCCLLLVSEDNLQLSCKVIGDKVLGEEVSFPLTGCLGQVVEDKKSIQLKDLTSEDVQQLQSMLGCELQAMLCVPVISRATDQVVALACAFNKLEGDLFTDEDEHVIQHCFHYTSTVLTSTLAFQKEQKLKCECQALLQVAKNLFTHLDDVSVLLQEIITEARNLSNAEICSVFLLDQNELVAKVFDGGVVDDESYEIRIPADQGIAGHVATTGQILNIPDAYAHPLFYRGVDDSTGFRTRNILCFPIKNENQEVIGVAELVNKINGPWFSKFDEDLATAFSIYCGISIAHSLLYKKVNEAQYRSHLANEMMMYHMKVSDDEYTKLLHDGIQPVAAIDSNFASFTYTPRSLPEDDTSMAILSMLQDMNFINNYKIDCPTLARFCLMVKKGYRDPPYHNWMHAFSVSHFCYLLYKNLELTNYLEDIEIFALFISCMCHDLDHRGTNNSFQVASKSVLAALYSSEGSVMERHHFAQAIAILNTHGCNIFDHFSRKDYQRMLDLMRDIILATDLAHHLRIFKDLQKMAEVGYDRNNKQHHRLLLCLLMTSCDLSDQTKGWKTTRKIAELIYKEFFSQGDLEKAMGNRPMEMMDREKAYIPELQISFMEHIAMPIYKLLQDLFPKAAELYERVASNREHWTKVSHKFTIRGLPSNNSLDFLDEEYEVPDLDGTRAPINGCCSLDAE
T3 sequence (Q14432 whole entry): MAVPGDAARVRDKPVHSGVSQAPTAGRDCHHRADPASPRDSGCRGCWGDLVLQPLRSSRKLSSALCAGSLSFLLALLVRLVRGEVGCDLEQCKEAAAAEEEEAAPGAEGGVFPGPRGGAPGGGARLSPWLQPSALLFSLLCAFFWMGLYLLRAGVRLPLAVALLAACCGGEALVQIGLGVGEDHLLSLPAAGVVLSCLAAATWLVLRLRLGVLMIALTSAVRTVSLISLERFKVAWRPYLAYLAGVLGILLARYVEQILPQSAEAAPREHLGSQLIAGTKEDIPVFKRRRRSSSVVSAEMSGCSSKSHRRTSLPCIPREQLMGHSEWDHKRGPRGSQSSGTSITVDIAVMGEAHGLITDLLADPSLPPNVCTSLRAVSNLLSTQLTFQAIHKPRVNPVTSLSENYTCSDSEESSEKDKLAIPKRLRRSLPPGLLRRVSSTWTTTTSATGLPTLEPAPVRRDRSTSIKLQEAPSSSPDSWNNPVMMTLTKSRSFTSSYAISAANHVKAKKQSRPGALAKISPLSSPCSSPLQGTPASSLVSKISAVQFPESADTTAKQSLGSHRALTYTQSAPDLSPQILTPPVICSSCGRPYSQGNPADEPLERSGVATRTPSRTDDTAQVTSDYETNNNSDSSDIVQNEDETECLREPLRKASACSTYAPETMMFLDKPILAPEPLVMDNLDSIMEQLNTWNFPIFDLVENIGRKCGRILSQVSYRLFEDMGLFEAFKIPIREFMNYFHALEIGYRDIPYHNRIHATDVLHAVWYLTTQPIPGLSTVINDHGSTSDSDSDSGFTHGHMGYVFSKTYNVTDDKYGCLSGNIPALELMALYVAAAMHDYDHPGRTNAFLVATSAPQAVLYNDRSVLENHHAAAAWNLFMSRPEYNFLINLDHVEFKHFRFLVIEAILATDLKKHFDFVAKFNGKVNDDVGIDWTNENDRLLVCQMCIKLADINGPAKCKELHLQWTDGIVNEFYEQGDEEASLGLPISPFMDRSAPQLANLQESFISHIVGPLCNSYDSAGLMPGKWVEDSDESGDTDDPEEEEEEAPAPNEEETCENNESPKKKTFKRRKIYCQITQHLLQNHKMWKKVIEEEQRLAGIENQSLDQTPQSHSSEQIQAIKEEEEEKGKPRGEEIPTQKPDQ
T4 sequence (Q9Y233 267-1055): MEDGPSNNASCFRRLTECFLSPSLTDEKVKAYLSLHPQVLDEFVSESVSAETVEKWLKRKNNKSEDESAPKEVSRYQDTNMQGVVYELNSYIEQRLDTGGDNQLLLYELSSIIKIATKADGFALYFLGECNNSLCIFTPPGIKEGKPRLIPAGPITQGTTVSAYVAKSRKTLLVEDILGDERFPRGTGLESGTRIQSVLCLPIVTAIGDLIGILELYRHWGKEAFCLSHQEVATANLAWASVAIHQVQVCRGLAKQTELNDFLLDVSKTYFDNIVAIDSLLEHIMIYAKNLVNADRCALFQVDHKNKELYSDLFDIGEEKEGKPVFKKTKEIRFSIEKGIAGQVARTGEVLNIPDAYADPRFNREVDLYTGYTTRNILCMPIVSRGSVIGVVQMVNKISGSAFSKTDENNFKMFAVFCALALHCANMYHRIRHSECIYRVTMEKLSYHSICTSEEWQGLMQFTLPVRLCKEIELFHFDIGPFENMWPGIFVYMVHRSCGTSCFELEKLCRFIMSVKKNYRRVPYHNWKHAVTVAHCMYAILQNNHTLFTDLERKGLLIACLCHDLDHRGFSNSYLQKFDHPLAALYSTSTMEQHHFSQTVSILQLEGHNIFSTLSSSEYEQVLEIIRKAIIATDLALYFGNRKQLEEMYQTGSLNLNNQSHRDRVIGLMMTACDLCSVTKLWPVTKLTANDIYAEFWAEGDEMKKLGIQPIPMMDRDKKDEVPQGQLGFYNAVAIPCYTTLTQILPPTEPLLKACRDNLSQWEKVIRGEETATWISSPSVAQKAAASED

Row | receptor occupancy at 10 mg/kg (PDE2A; po) [%] | Compound | Emax [1] [%] | IC50 [1, 4] [nM] | receptor occupancy at 10 mg/kg (PDE2A) [%] | IC50 ([2]; read-out: pIC50 (converted)) [nM] | Emax [2] [%] | Emax [3, 5] [%] | IC50 [3, 6] [nM] | IC50 ([1]; hPDE2A pIC50) [nM] | IC50 [2] [nM] | IC50 [3, 7] [nM] | ED50 (PDE2A; po, read-out: PDE Occupancy ED50) [mg/kg]
1 |  | COc1cc(C(=O)N2[C@H]3CC[C@H](c4cc(C(F)F)nc5ncnn45)[C@@H]2CC3)cc(OC)n1 [Compound 301] | 100 | 8.13 | -7 | 6310 | 62 | 89 | 1260 |  |  |  | 
2 |  | Cc1cc(C)cc(C(=O)N2[C@H]3CC[C@H](c4cc(C(F)F)nc5ncnn45)[C@@H]2CC3)c1 [Compound 302] | 101 | 6.46 | 1 | 7940 | 59 | 93 | 891 |  |  |  | 
3 |  | Cc1nc2ccc(C(=O)N3[C@H]4CC[C@H](c5cc(C(F)F)nc6ncnn56)[C@@H]3CC4)cc2o1 [Compound 303] | 99 | 7.08 | 17 | 6610 | 57 | 95 | 537 |  |  |  | 
4 |  | Cc1cc2ccc(C(=O)N3[C@H]4CC[C@H](c5cc(C(F)F)nc6ncnn56)[C@@H]3CC4)cn2c1 [Compound 307] | 99 |  | 8 |  | 88 | 97 |  | 9.12 | 1480 | 603 | 
5 |  | O=C(c1ccc2ccccc2n1)N1[C@H]2CC[C@H](c3cc(C(F)F)nc4ncnn34)[C@@H]1CC2 [Compound 308] | 98 |  | 18 |  | 72 | 66 |  | 17.4 | 4570 | 6760 | 
6 |  | O=C(c1cnc2c(F)cccc2c1)N1[C@H]2CC[C@H](c3cc(C(F)F)nc4ncnn34)[C@@H]1CC2 [Compound 309] | 100 | 2.95 | 12 | 7590 | 53 | 86 | 1510 |  |  |  | 
7 |  | O=C(c1ccc2ncccc2c1)N1[C@H]2CC[C@H](c3cc(C(F)F)nc4ncnn34)[C@@H]1CC2 [Compound 311] | 96 | 1.1 | -1 | 7410 | 62 | 96 | 427 |  |  |  | 
8 |  | O=C(c1ccc2ncc(F)cc2c1)N1[C@H]2CC[C@H](c3cc(C(F)F)nc4ncnn34)[C@@H]1CC2 [Compound 312] | 99 | 21.9 | -16 | > 10000 | 37 | 93 | 617 |  |  |  | 
9 |  | O=C(c1cnc2ccccc2c1)N1[C@H]2CC[C@H](c3cc(C(F)F)nc4ncnn34)[C@@H]1CC2 [Compound 313] | 97 | 1.35 | 28 | 6030 | 61 | 86 | 1230 |  |  |  | 
10 |  | O=C(c1ccc2cnccc2c1)N1[C@H]2CC[C@H](c3cc(C(F)F)nc4ncnn34)[C@@H]1CC2 [Compound 314] | 100 | 5.75 | 5 | 3550 | 73 | 91 | 933 |  |  |  | 
11 |  | O=C(c1ccc2ccccc2c1)N1[C@H]2CC[C@H](c3cc(C(F)F)nc4ncnn34)[C@@H]1CC2 [Compound 319] | 100 | 1.12 | 37 | 1020 | 95 | 99 | 263 |  |  |  | 
12 |  | Cc1nn(C)c2sc(C(=O)N3[C@H]4CC[C@H](c5cc(C(F)F)nc6ncnn56)[C@@H]3CC4)cc12 [Compound 335] | 102 | 0.955 | 88 | 7240 | 52 | 98 | 87.1 |  |  |  | 0.985
13 |  | Cc1cc(Cl)cc(C(=O)N2[C@H]3CC[C@H](c4cc(C(F)F)nc5ncnn45)[C@@H]2CC3)c1 [Compound 339] | 101 | 6.61 | -1 | 4790 | 69 | 95 | 617 |  |  |  | 
14 |  | Cc1cc(C(=O)N2[C@H]3CC[C@H](c4cc(C(F)F)nc5ncnn45)[C@@H]2CC3)cc(C)c1F [Compound 346] | 100 | 5.25 | 19 | 6030 | 68 | 92 | 724 |  |  |  | 
15 |  | Cc1csc(C(=O)N2[C@H]3CC[C@H](c4cc(C(F)F)nc5ncnn45)[C@@H]2CC3)c1 [Compound 347] | 101 |  | 11 |  | 63 | 91 |  | 5.37 | 7240 | 1000 | 
16 |  | O=C(c1cc(OC(F)F)cc(C2CC2)c1)N1[C@H]2CC[C@H](c3cc(C(F)F)nc4ncnn34)[C@@H]1CC2 [Compound 352] | 100 | 7.59 | 16 | 1820 | 89 | 99 | 479 |  |  |  | 
17 |  | CN(C)c1ccc(C(=O)N2[C@H]3CC[C@H](c4cc(C(F)F)nc5ncnn45)[C@@H]2CC3)cc1 [Compound 362] | 99 | 1.7 | 3 | 871 | 88 | 93 | 794 |  |  |  | 
18 |  | COc1ccc(C(=O)N2[C@H]3CC[C@H](c4cc(C(F)F)nc5ncnn45)[C@@H]2CC3)cc1OC [Compound 364] | 101 | 3.89 | -5 | 3160 | 75 | 85 | 1820 |  |  |  | 
19 |  | Cc1cc(C(=O)N2[C@H]3CC[C@H](c4cc(C(F)F)nc5ncnn45)[C@@H]2CC3)cnc1C [Compound 366] | 99 | 10.2 | 18 | > 10000 | 22 | 64 | 5750 |  |  |  | 
20 |  | Cc1nc2ccc(C(=O)N3[C@H]4CC[C@H](c5cc(C(F)F)nc6ncnn56)[C@@H]3CC4)cc2s1 [Compound 368] | 101 | 6.17 | 11 | 6460 | 61 | 99 | 251 |  |  |  | 
21 |  | Cc1ccc(C(=O)N2[C@H]3CC[C@H](c4cc(C(F)F)nc5ncnn45)[C@@H]2CC3)cc1Cl [Compound 369] | 100 | 4.9 | 9 | 3720 | 72 | 93 | 724 |  |  |  | 
22 | 3 | Cc1cc([C@@H]2CN(C(=O)c3cc(C4CC4)ncc3Cl)CC[C@H]2C)n2ncnc2n1 [Compound 391] | 99 | 2.4 |  | 2240 | 81 | 97 | 63.1 |  |  |  | 
23 | 46 | Cc1cc(C(=O)N2CC[C@@H](C)[C@H](c3cc(C(F)F)nc4ncnn34)C2)c(F)c(OC2CC2)n1 [Compound 392] | 99 | 1.12 |  | 447 | 97 | 93 | 263 |  |  |  | 

Reference: patent US10947242B2, “[1,2,4]triazolo[1,5and#8208;A]pyrimidine compounds as PDE2 inhibitors” (Janssen Pharmaceutica NV, priority 2016, dated 2021)
